PubChem BioAssay AID652179 (Johns Hopkins Ion Channel Center, 2013)
Activity calls are given as the source filed them.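 How the source made its calls: active means maximum inhibition above 50% at any tested concentration, with a dose response curve fitted; inactive means no inhibition at any concentration or no dose response curve.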

Molecular target: TRPC4 (transient receptor potential cation channel C4), mouse
Assay: blockers of mouse TRPC4 cation channel – cell-based, concentration-response, SAR follow-up (AID 652179)
Conditions: HEK293 TRPC4/mu-opioid cells, Fluo-4 calcium fluorescence ratio; for fluorescence ratio, lower = inhibition: at 20 µM (top of the series)

fluorescence ratio, lower = inhibition	IC50	SMILES
inactive	–	Cc1cc(N2CCC(=O)CC2)nc2ccccc12
inactive	–	Cc1cc(-n2cccn2)nc2ccccc12
inactive	–	FC1CCN(c2ccc3ccccc3n2)CC1
inactive	–	Cc1cc(N2CCC(O)CC2)nc2ccccc12
–	1.53 µM	Cc1cc(N2CCCCC2)nc2ccccc12
–	12.6 µM	Cc1cc(N2CCCC(F)C2)nc2ccccc12 (stereo unspecified)
–	4.61 µM	c1ccc2nc(N3CCCCC3)ccc2c1
inactive	–	O=C1CCN(c2ccc3ccccc3n2)CC1
inactive	–	Cc1cc(-n2cccc2)nc2ccccc12
inactive	–	Cc1cc(N2CCC(O)C2)nc2ccccc12 (stereo unspecified)
inactive	–	Cc1cc(-n2ccnc2)nc2ccccc12
–	10.6 µM	Cc1cc(N2CCC(F)(F)CC2)nc2ccccc12
inactive	–	c1ccc2nc(N3CCCC3)ccc2c1
inactive	–	FC1CCCN(c2ccc3ccccc3n2)C1 (stereo unspecified)
inactive	–	Cc1cc(N(C)C)nc2ccccc12
–	14.9 µM	C[C@H]1CCCN1c1ccc2ccccc2n1
inactive	–	OC1CCN(c2ccc3ccccc3n2)C1 (stereo unspecified)
–	10.2 µM	Cc1cc(N2CCC(F)CC2)nc2ccccc12
inactive	–	FC1(F)CCN(c2ccc3ccccc3n2)CC1
inactive	–	OC1CCCN(c2ccc3ccccc3n2)C1 (stereo unspecified)
inactive	–	OC1CCN(c2ccc3ccccc3n2)CC1
